Reference: US20090062255A1, “TUMOR-TARGETING EVALUATION METHODOLOGY AND COMPOUNDS RELATED THERETO” (THALLION PHARMACEUTICALS INC., priority 2007, published 2009)

Legend:
[1] = tested on: HT-29, SF268, MDA-MB-231 and PC-3 cell lines; test: In vitro cytotoxic activity against four cell lines (overall statement); format: cell-based; conditions: second test
Text: Procedures used for each series of tests are described below.
Compound 2 has an unexpected increase in cytotoxic activity compared to parent Compound 1. […] Cytotoxic activity (GI50) of Compound 2 for the other three strains was outside the expected range of concentrations used in the first tests.

[2] = tested on: Phospho-ERK (Ras-MAPK signaling pathway); test: ERK phosphorylation ELISA assay (FACE) in MCF-7 cells; format: cell-based, human; conditions: 6 hours, EGF 100 ng/mL for 5 min
Protocol: Human breast tumor MCF-7 cells were plated in 96-well culture plates (10,000 cells per well) in RPMI containing 10% FBS. After an overnight incubation, the medium is changed to low serum conditions (RPMI containing 0.1% FBS) for 18 h. Cells were then treated with ECO-4601 or selected analogs for 6 hours and then stimulated by the addition of EGF (100 ng/mL for 5 min) to induce the MAPK pathway. UO126 is a commercial inhibitor (Promega, Madison, Wis.) of mitogen-activated protein kinase kinase (MEK1/ERK). Following stimulation, cells were rapidly fixed, which preserved activation-specific protein modifications. Each well was then incubated with an antibody specific for Phospho-ERK or total ERK. After an one-hour incubation and several washes, cells were incubated with a secondary HRP-conjugated antibody followed by a developing solution that provided a colorimetric readout that is quantitative and reproducible. The Fast Activated Cell-based ELISA (FACE™) is commercially available (Active Motif, Carlsbad, Calif.).

[3] = tested on: Raf-1; test: Raf-1 protein levels in MiaPaCa-2 tumors (Western blot); format: in vivo, mice; conditions: 20 mg/kg SC daily for 5 days
Protocol: In this model, it was verified if there was an association between antitumor activity and inhibition of the Ras-MAPK pathway. In parallel to the antitumor study described above, two additional groups of 5 mice were treated SC with vehicle or 20 mg/kg ECO-4601, administered daily for 5 days. Animals from these two groups were sacrificed two hours on day 5 of treatment. As shown by quantification of Western blot analysis (FIG. 13), Raf-1 levels were reduced in MiaPaCa-2 tumors obtained from animals treated with ECO-4601 compared with the vehicle-treated animals.

[4] = tested on: GHA oligodendroglioma cell line; test: MTT cytotoxicity, GHA cell line; format: cell-based; conditions: 96 h, Human
Protocol: The cytotoxic activity of Compound 1 was further evaluated using a panel of brain tumor cell lines. This study was performed in collaboration with INSERM (Grenoble, France). Tumor cells (5,000 to 10,000 cells per well depending on their doubling time) were plated in 96-well flat-bottom plates and incubated for 24 hours before treatment. Tumor cells were then incubated for 96 hours with seven different concentrations of Compound 1: […], 0.01, and 0.001 μM. The in vitro cytotoxic activity was determined by a standard MTT assay.

[5] = tested on: human breast cell line MDA-MB-231; test: Growth inhibitory MTT assay, MDA-MB-231; format: cell-based; conditions: 72 hours, treated over control
Protocol: Growth inhibitory activity of ECO-4601 (Compound 1) and other dibenzodiazepinone analogs was evaluated on a panel of 4 human tumor cell lines: the human uterine sarcoma MES-SA and its doxorubicin-resistant P-glycoprotein over-expressing variant, MES-SA/DX5 as well as non-aggressive and highly aggressive human breast cell lines, MCF-7 and MDA-MB-231, respectively. These four cell lines were obtained from the American Type Culture Collection (Manassas, Va.) and cultured in RPMI plus 10% fetal bovine serum (FBS) and maintained at 37° C. with 5% CO2.
Exponentially growing cells (5,000 cells per well time; cell number determined with a hemocytometer) were seeded in 96-well flat-bottom plates and allowed to grow overnight. Cells were then incubated for 72 hours with three different concentrations of ECO-4601 or analogs: 30,10, and 3 μM. The in vitro growth inhibitory activity was determined by a commercial MTT assay. All measurements were done in quadruplicate and each experiment was performed 2-3 times. The lower the value, the more cytotoxic is the compound.

[6] = target: T1, human MEK1 (Homo sapiens, UniProt Q02750); test: Upstate Kinase Profiler, MEK1; format: biochemical
T1 construct: purchased Upstate (Kinase Profiler Service; Dundee, UK)
Protocol: Unlike current Ras signalling pathway inhibitors, ECO-4601 is not a direct kinase inhibitor. This was documented by evaluating the effect of ECO-4601 on human EGFR, c-RAF, MEK1, MAPK1 (ERK1) and MAPK2 (ERK2) kinase-activity (Upstate Kinase Profiler™ Service; Dundee, UK). ECO-4601 was tested at 0.5 μM and 5 μM in a final volume of 25 μL according to standard protocols developed by Upstate Ltd. Briefly, purified recombinant human enzymes were incubated with 25 mM Tris pH 7.5 containing EGTA, a specific substrate and γ-^32P-ATP. The reaction was initiated with MgATP mix and incubated for 40 minutes at RT. The reaction was stopped by the addition of 5 μL of a 3% phosphoric acid solution; aliquots were spotted on filters and counted. Detailed procedures are available on the Millipore Upstate website.

T1 sequence (Q02750 whole entry): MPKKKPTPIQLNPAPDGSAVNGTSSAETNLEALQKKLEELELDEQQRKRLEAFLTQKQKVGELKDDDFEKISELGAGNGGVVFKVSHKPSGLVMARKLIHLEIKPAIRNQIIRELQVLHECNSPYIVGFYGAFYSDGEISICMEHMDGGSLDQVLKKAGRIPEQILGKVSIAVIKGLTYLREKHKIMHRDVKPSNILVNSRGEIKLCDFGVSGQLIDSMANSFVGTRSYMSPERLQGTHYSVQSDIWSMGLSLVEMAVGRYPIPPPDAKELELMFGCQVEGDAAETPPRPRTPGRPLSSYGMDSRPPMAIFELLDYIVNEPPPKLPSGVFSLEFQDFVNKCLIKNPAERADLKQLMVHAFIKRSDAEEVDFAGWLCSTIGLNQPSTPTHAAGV

Compound | increase in potency compared to Compound 1 [1] | inhibition of phospho-ERK in the FACE ELISA assay [2] | Raf-1 levels in MiaPaCa-2 tumors versus vehicle-treated animals [3] | IC50 [4] | % T/C at 10 μM [5] | direct inhibition of MEK1 kinase activity (in words) ([6]; 0.5 μM and 5 μM) | activity at 0.5 µM ([6]; MEK1, 0.5 μM, % of enzyme activity over positive control, read-out: Kinase Activity (%) ± SD) | activity at 5 µM ([6]; MEK1, 5 μM, % of enzyme activity over positive control, read-out: Kinase Activity (%) ± SD)
CC(C)=CCC/C(C)=C/CC/C(C)=C/CN1C(=O)c2cccc(O)c2N(C)c2c(O)cc(O)cc21 [Compound 2, 10-farnesyl-4,6,8-trihydroxy-5-methyl-5,10-dihydro-dibenzo[b,e][1,4]diazepin-11-one] | 100 fold | – | – | – | – | – | – | –
CC(C)=CCC/C(C)=C/CC/C(C)=C/CN1C(=O)c2cccc(O)c2Nc2c(O)cc(O)cc21 [Compound 1, 10-farnesyl-4,6,8-trihydroxy-5,10-dihydrodibenzo[b,e][1,4]diazepin-11-one] | – | inhibit the Ras-MAPK signaling pathway | reduced | 1.6 ± 0.7 µM | 38% | does not directly inhibit | 106 ± 2% | 98 ± 1%
